Laboratory results as given in patent publication US20200247849A1, “PEPTIDE AGONISTS AND ANTAGONISTS OF TLR4 ACTIVATION” (PEPTICOM LTD, priority 2016, published 2020).
Non-standard residues stand in square brackets, D forms with d. No end group written: not given here. Chg = N[C@H](C(=O)O)C1CCCCC1; Ava = NCCCCC(=O)O

What was measured:
Format in all cases: cell-based
[1] = tested on: TLR4 with MD2 or CD14 co-receptor; test: Reporter gene (SEAP) PAMP assay in NIH3T3 cells expressing TLR4 with MD2 or CD14 co-receptor; set-up: key to PAMP assay (NIH3T3 cells) Induction with compound alone / PAMP assay (NIH3T3 cells) Induction with compound + LPS: 0: no effect of the compound alone/no effect of the compound in addition to LPS alone; +: small effect of the compound alone/small effect of the compound in addition to LPS alone; ++: intermediate effect of the comp. alone/intermediate effect of the comp. in add. to LPS alone; +++: strong effect of the compound alone/strong effect of the compound in addition to LPS alone; conditions: for Co-Receptor/s: co-receptor (MD2/CD14) via which the effect occurs; for Co-Receptor/s / Activity: summary of FIGS. 6A-6V; for Activity: type of effect (activation/inhibition) on TLR4
From the text: FIGS. 6A-6V show the dose response inhibitor/activator effects of the designed peptides using a reporter gene assay. The reporter gene assay is composed of NIH3T3 cells transfected with either MD2 or CD14 along with TLR4 and the NF-κB-inducible reporter gene Secreted Alkaline Phosphatase (SEAP) to monitor TLR4 activation (Burger-[…] al. 2010, A new cell-based innate immune receptor assay for the examination of receptor activity, ligand specificity, signaling pathways and the detection of pyrogens. […] The receptors are coupled to for the detection of inhibitory activity, cells were treated with the peptide prior to exposure to LPS and the response to LPS is measured at variable peptide doses (as labeled). The detection of cell activation was performed using the peptide alone, at variable doses, as indicated in the respective graphs. The following presents in more details the experimental procedures. Experimental setup: The cell-based Assay is performed with different NIH3T3 reporter cell lines (NIH 3T3 PRR SEAP-TLR4/CD14 or -TLR4/MD2) and the control cell line NIH 3T3 SEAP. The NIH3T3 SEAP cell line is used in order to determine the background of the alkaline phosphatase expression. It is a cell line stably transfected with only the reporter gene plasmid. For each assay a vial of the master cell bank is revitalized and seeded in a standard cell culture flask (75 cm^2 T-Flask) at day one. Cells are cultured in 20 ml culture media (DMEM supplemented with 10% FCS (heat inactivated), 50 units/ ml penicillin, 0.05 mg/ ml streptomycin and 2 mmol/ L L-glutamine). The cells are cultured at 37° C. in a 5% CO2 humidified atmosphere. At Day 1: For the PAMP Assay cells are seeded in a 96-well plate at a density of 0.3.10^5 cells/well in a final volume of 100 μl culture media (DMEM, 10% FCS (heat inactivated)). To ensure equal culture conditions the 96-well cell culture plates are placed side by side and cultivated in a humidified CO2 incubator (37° C. and 5% CO2). […] After a cultivation period of 24 h the media is removed and replaced with the respective volume of fresh media (DMEM, 0.5% FCS (heat inactivated)).The lyophilized peptides are stored in a freezer at -20° C. upon arrival. For the experiments they are dissolved in DMSO (to the highest possible concentration). Before opening the peptides are allowed to equilibrate to room temperature (in order to reduce the uptake of moisture). For each experiment the stock solution is diluted in DMEM to the appropriate working concentration. […] Sonication was also used to help dissolve the peptides. Immediately after replacing the media, the diluted peptides are applied in a serial dilution to the cells and directly after that the agonist is added to the cells. After adding peptide and […] the final volume in each well of a 96 well plate amounts 100 μl/well. The culture medium containing 0.5% FCS is used as a negative reference item. The induction is performed for 18 h at 37° C. and 5% CO2. At Day 3: To determine the final SEAP value, 50 μl of the supernatant is carefully transferred in a new 96-well plate (Greiner-F-plate) and 50 μl of the substrate (pNPP; p-nitrophenyl phosphate) is added. SEAP catalyzes the hydrolysis of pNPP to the final product para-nitrophenol (yellow) which can be detected by a photometric analysis using an UV-VIS reader at 405 nm. […] The results of FIGS. 6A-6V with respect to peptide activity are summarized in Table 1 above with respect to the type of effect of the respective peptide (activation/inhibition) and with respect to the corresponding co-receptor (MD2/CD14). Data concerning SEQ ID No. 22 with respect to co-receptor CD14 is in preparation.

[2] = tested on: whole human blood; test: IL-1β ELISA after 24-hour incubation with whole human blood; set-up: key: 0: no effect of the compound alone/no effect of the compound in addition to LPS alone; +: small effect of the compound alone/small effect of the compound in addition to LPS alone; ++: intermediate effect of the comp. alone/intermediate effect of the comp. in add. to LPS alone; +++: strong effect of the compound alone/strong effect of the compound in addition to LPS alone; conditions: for IL-1β ELISA after blood activation Induction with compound + LPS: LPS 100 pg/ml
Experimental: One attribute of TLR-4 activation is the release of the pro-inflammatory cytokine Interleukin-1β (IL1β). Several of our discovered peptides were tested for IL1β induction by ELISA following a 24-hour incubation with whole human blood. IL1β induction was measured with increasing dosage of the peptides alone, or with a fixed dosage of LPS (100 pg/ml).

[3] = target: T1, TLR4/MD2 (Homo sapiens, UniProt O00206+Q9Y6Y9); test: Reporter gene assay, NIH3T3 cells TLR4 with MD2 co-receptor
T1 construct: expressed in transfected cells; host or cells: NIH3T3 (NIH 3T3 PRR SEAP-TLR4/MD2)
T1 sequence (O00206 24-839): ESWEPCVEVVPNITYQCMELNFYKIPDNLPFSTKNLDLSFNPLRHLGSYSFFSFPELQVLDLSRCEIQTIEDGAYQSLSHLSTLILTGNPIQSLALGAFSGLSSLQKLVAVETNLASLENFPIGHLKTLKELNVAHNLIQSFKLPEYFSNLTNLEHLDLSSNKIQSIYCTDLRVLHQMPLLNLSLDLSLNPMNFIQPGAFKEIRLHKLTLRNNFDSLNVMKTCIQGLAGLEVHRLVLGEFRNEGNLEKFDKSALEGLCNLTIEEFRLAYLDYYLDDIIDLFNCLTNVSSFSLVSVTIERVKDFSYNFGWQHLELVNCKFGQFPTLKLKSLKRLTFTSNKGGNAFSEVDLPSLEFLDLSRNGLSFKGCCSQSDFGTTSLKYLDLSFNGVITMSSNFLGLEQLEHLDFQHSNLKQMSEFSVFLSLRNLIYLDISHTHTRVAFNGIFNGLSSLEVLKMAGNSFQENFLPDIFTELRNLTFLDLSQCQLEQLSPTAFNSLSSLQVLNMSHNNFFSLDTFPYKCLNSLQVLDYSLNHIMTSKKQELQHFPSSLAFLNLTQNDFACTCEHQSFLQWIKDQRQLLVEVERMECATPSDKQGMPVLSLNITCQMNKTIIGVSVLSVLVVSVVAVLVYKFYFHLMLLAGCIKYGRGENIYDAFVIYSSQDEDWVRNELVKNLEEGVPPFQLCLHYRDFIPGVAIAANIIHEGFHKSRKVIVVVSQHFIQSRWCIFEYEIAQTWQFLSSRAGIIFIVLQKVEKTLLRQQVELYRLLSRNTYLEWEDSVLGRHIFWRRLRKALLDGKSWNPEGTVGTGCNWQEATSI
T1 sequence (Q9Y6Y9 19-160): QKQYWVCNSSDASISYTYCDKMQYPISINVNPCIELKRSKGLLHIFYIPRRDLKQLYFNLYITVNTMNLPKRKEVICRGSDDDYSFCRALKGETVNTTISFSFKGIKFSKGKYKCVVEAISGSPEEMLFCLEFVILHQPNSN
From the text: FIGS. 6A-6V present peptide activity using NIH3T3 cells that express TLR4, with either the MD2 co-receptor (top) or CD14 co-receptor (bottom), for peptides of SEQ ID Nos. 1-22, respectively, according to some embodiments of the invention. FIGS. 6A-6V show the dose response inhibitor/activator effects of the designed peptides using a reporter gene assay. The reporter gene assay is composed of NIH3T3 cells transfected with either MD2 or CD14 along with TLR4 and the NF-κB-inducible reporter gene Secreted Alkaline Phosphatase (SEAP) to monitor TLR4 activation (Burger-Kentischer et al. 2010, A new cell-based innate immune receptor assay for the examination of receptor activity, ligand specificity, signaling pathways and the detection of pyrogens. J Immunol Methods. 358(1-2): 93-103). […] The receptors are coupled to for the detection of inhibitory activity, cells were treated with the peptide prior to exposure to LPS and the response to LPS is measured at variable peptide doses (as labeled). […]
At Day 3: To determine the final SEAP value, 50 μl of the supernatant is carefully transferred in a new 96-well plate (Greiner-F-plate) and 50 μl of the substrate (pNPP; p-nitrophenyl phosphate) is added. SEAP catalyzes the hydrolysis of pNPP to the final product para-nitrophenol (yellow) which can be detected by a photometric analysis using an UV-VIS reader at 405 nm. […]

Substance | Co-Receptor/s [1] | PAMP assay (NIH3T3 cells) Induction with compound + LPS [1] | PAMP assay (NIH3T3 cells) Induction with compound alone [1] | Activity [1] | IL-1β ELISA after blood activation Induction with compound + LPS [2] | IL-1β ELISA after blood activation Induction with compound alone [2] | activation with respect to MD2 [3]
(N′) Chg-2Leu-3Tyr-4Met-5Ser-6Leu-7Lys-8Trp-9Met (C′) ([Chg]LYMSLKWM) [SEQ ID No. 4 (M2)] | MD2/CD14 | ++ | ++ | Activator | +++ | + | –
1(N′) Ava-OH-2Leu-3Tyr-4Met-5Ser-6Leu-7Lys-8Trp-9Met (C′) ([Ava]LYMSLKWM; also: Ava-OH) [SEQ ID No. 4 (M1)] | MD2/CD14 | ++ | ++ | Activator | +++ | + | –
ILYMSLKWM (Activator) [SEQ ID No. 4] | MD2/CD14 | +++ | + | Activator | +++ | 0 | –
c[MLSFRM] (cyclic; Activator, cyclic) [SEQ ID No. 6] | MD2/CD14 | ++ | ++ | Activator | +++ | + | –
RYETMSIMIKSGGKY (not fully specified) [SEQ ID No. 1 (M1)] | MD2/CD14 | + | + | Activator | +++ | ++ | –
c[WMLGMESI] (cyclic; Activator, cyclic) [SEQ ID No. 7] | CD14 | – | – | Activator | – | – | weak activator
RYETMSIMIKSGGKG-(methyl group replacing C-terminus) [SEQ ID No. 1 (M3)] | MD2/CD14 | + | + | Activator | 0 | 0 | –
c[IWSRSW] (cyclic; Inhibitor, cyclic) [SEQ ID No. 15] | MD2 | – | – | Inhibitor | – | – | –
MIPYGMRMM (Inhibitor) [SEQ ID No. 10] | MD2 | – | – | Inhibitor | – | – | –
PLWMMIKSMGSMMEMKK (Activator) [SEQ ID No. 3] | MD2 | – | – | Activator | – | – | –
RYETMSIMIKSGGKY-(methyl group replacing C-terminus) (RYETMSIMIKSGGKY-CH3) [SEQ ID No. 1 (M2)] | MD2/CD14 | + | + | Activator | 0 | 0 | –
